Laboratory results reported in US20220204497A1, “NOVEL COMPOUND HAVING ANTICANCER ACTIVITY, AND METHOD FOR PRODUCING SAME” (MEDICINAL BIOCONVERGENCE RESEARCH CENTER, priority 2019, published 2022).

Columns and labels:
[1] = tested on: A549 cells; test: Cell viability by MTT method in A549 cells; format: cell-based; parameters: concentration or dose not given beside the values; details: 72 hours treatment
[2] = molecular target: T1, AIMP2-DX2 (Homo sapiens, UniProt Q13155); test: DX2-nanoluciferase assay (DX2 expression change) in transfected A549 cells; details: for inhibition at 40 µM / inhibition at 10 µM: A549, 4 h; for inhibition at 40 µM: read-out: DX-Nanoluciferase activity (40 μM), 40 μM, 4 hours treatment, A549 cells transfected with nanoluciferase-DX2; for inhibition at 10 µM: read-out: DX-Nanoluciferase activity (10 μM), 10 μM, 4 hours treatment, A549 cells transfected with nanoluciferase-DX2
T1 sequence (Q13155 1-251 isoform Q13155-2): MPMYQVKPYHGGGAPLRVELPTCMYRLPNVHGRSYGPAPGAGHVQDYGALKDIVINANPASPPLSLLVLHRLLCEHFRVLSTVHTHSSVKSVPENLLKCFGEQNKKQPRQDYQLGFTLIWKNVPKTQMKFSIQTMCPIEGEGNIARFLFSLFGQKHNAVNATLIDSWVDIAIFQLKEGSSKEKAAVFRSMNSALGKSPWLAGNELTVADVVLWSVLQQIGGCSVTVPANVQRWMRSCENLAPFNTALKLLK
Procedure: After cloning DX2 into a plasmid expressing nanoluciferase, the plasmid was transfected into A549 cells. Transfected cells were seeded 1×10^4 per well in a 96-well plate and stabilized for 12 hours. […] Cell viability was measured by the MTT method after 72 hours of treatment with each concentration of the compound in A549 cells.

[3] = inhibitory effect on AIMP2-DX2 expression

Structure (SMILES) | Cell Viability (% inhibition) (A549) [1] [%] | inhibition at 40 µM [2, 3] [%] | DX-Nanoluciferase activity (40 μM) ([2]; 40 μM, 4 hours treatment, A549 cells transfected with nanoluciferase-DX2, inhibitory effect on AIMP2-DX2 expression) | inhibition at 10 µM [2] [%]
Cc1ccc(S(=O)(=O)N[C@@H](CC(C)C)C(=O)N2CCOCCOCCOCC2)cc1 [Compound 3, (S)-4-methyl-N-(4-methyl-1-oxo-1-(1,4,7-trioxa-10-azacyclododecan-10-yl)pentan-2-yl)benzenesulfonamide] | 8.64 | 55.8 ± 14.8 |  | 
Cc1ccc(S(=O)(=O)N[C@H](CC(C)C)C(=O)N2CCOCCOCCOCC2)cc1 [Compound 4, (R)-4-methyl-N-(4-methyl-1-oxo-1-(1,4,7-trioxa-10-azacyclododecan-10-yl)-Pentan-2-yl)benzenesulfonamide] | 15.11 | 10.7 ± 12.8 |  | 
Cc1ccc(S(=O)(=O)N[C@@H](CC(C)C)C(=O)N2CCS(=O)(=O)CC2)cc1 [Compound 5, (S)—N-(1-(1,1-dioxidothiomorpholino)-4-methyl-1-oxopentan-2-yl)-4-methylbenzenesulfonamide] | 15.98 | 47.4 ± 7.4 |  | 
Cc1ccc(S(=O)(=O)N[C@@H](CC(C)C)C(=O)N2CCC[C@@H]2CO)cc1 [Compound 6, N—((S)-1-((R)-2-(hydroxymethyl)pyrrolidin-1-yl)-4-methyl-1-oxopentan-2-yl)-4-methylbenzenesulfonamide] | 15.98 | 39.9 ± 7.4 |  | 
Cc1ccc(S(=O)(=O)N[C@@H](CC(C)C)C(=O)Nc2ccc(N3CCC(C)CC3)nc2)cc1 [Compound 9, (S)-4-Methyl-2-(4-methylphenylsulfonamido)-N-(6-(4-methylpiperidin-1-yl)pyridin-3-yl)pentanamide] | 78.3 | 18.3 |  | 
Cc1ccc(S(=O)(=O)N[C@@H](CC(C)C)C(=O)Nc2cc(N3CCC(C)CC3)ncn2)cc1 [Compound 10, (S)-4-methyl-2-(4-methylphenylsulfonamido)-N-(6-(4-methylpiperidin-1-yl)pyrimidin-4-yl)pentanamide] | 72.7 | 1.5 |  | 
Cc1ccc(S(=O)(=O)N[C@@H](CC(C)C)C(=O)Nc2ccc(N3CCOCC3)nc2)cc1 [Compound 12, (S)-4-Methyl-2-(4-methylphenylsulfonamido)-N-(6-morpholinopyridin-3-yl)pentanamide] | 23.26 | 43.8 ± 8.7 |  | 
Cc1ccc(S(=O)(=O)N[C@@H](CC(C)C)C(=O)Nc2ccc(N3C[C@@H](C)O[C@@H](C)C3)nc2)cc1 [Compound 13, (S)—N-(6-((2S,6R)-2,6-dimethylmorpholino)pyridin-3-yl)-4-methyl-2-(4-methylphenylsulfonamido)pentanamide] | 14.99 | 51.3 ± 4 |  | 
Cc1ccc(S(=O)(=O)N[C@@H](CC(C)C)C(=O)Nc2ccc(N3CCOCC3)c(F)c2)cc1 [Compound 14, (S)—N-(3-fluoro-4-morpholinophenyl)-4-methyl-2-(4-methylphenylsulfonamido)pentanamide] | 29.87 ± 2.48 | 55.6 ± 1.06 |  | 
Cc1ccc(S(=O)(=O)N[C@@H](CC(C)C)C(=O)Nc2ccc(N3CCN(C(=O)OC(C)(C)C)CC3)nc2)cc1 [Compound 16, (S)-tert-butyl 4-(5-(4-methyl-2-(4-methylphenylsulfonamido)pentanamido)pyridin-2-yl)piperazine-1-carboxylate] | 73.5 | 9.8 |  | 
Cc1ccc(S(=O)(=O)N[C@@H](CC(C)C)C(=O)NCCN2CCOCC2)cc1 [Compound 18, (S)-4-methyl-2-(4-methylphenylsulfonamido)-N-(2-morpholinoethyl)pentanamide] | 8.7 | 14.8 |  | 
CC(C)C[C@H](NS(=O)(=O)c1cccc([N+](=O)[O-])c1)C(=O)N1CCOCC1 [Compound 19, (S)—N-(4-methyl-1-morpholino-1-oxopentan-2-yl)-3-nitrobenzenesulfonamide] | 22.61 | 33.8 ± 8.2 |  | 
CC(C)C[C@H](NS(=O)(=O)c1cccc(N)c1)C(=O)N1CCOCC1 [Compound 20, (S)-3-amino-N-(4-methyl-1-morpholino-1-oxopentan-2-yl)benzenesulfonamide] | 24.57 | 31 ± 9.9 |  | 
CC(C)C[C@H](NS(=O)(=O)c1ccc(C(F)(F)F)cc1)C(=O)Nc1ccc(N2CCOCC2)cc1 [Compound 23, (S)-4-methyl-N-(4-morpholinophenyl)-2-(4-(trifluoromethyl)phenylsulfonamido)pentanamide] | 64.35 | 24.5 ± 4.4 |  | 
CC(C)C[C@H](NS(=O)(=O)c1cccc([N+](=O)[O-])c1)C(=O)Nc1ccc(N2CCOCC2)cc1 [Compound 24, (S)-4-methyl-N-(4-morpholinophenyl)-2-(3-nitrophenylsulfonamido)pentanamide] | 18.38 ± 11.76 | 59.4 ± 2.3 |  | 
CC(C)C[C@H](NS(=O)(=O)c1cccc2ccccc12)C(=O)Nc1ccc(N2CCOCC2)cc1 [Compound 25, (S)-4-methyl-N-(4-morpholinophenyl)-2-(naphthalene-1-sulfonamido)pentanamide] | 38.92 ± 1.69 | 25.5 ± 5.4 |  | 
CC(C)C[C@H](NS(=O)(=O)c1ccc2ccccc2c1)C(=O)Nc1ccc(N2CCOCC2)cc1 [Compound 26, (S)-4-methyl-N-(4-morpholinophenyl)-2-(naphthalene-2-sulfonamido)pentanamide] | 5.95 ± 2.15 | 52.7 ± 10.5 |  | 
CC(C)C[C@H](NC(=O)CCS(=O)(=O)c1ccccc1)C(=O)OCc1ccccc1 [Compound 28, (S)-Benzyl 4-methyl-2-(3-(phenylsulfonyl)propanamido)pentanoate] | 12.43 ± 8.58 |  | 57.4 ± 8.4 | 
CC(C)C[C@H](NS(=O)(=O)c1cccs1)C(=O)Nc1ccc(N2CCOCC2)cc1 [Compound 30, (S)-4-methyl-N-(4-morpholinophenyl)-2-(thiophene-2-sulfonamido)pentanamide] | 9.46 ± 9.61 | 23.7 ± 3.1 |  | 
CC(C)C[C@H](NS(=O)(=O)c1ccc(C(C)C)cc1)C(=O)Nc1ccc(N2CCOCC2)cc1 [Compound 32, (S)-2-(4-isopropylphenylsulfonamido)-4-methyl-N-(4-morpholinophenyl)pentanamide] | 20.27 ± 5.87 | 25.8 ± 2.5 |  | 
CC(C)C[C@H](NS(=O)(=O)c1ccc(OCc2ccccc2)cc1)C(=O)N1CCOCCOCCOCC1 [Compound 34, (S)-4-(benzyloxy)-N-(4-methyl-1-oxo-1-(1,4,7-trioxa-10-azacyclododecan-10-yl)pentan-2-yl)benzenesulfonamide] | 38.82 ± 5.12 | 34.4 ± 0.91 |  | 
CC(C)C[C@H](NS(=O)(=O)c1ccc(O)cc1)C(=O)N1CCOCCOCCOCC1 [Compound 35, (S)-4-hydroxy-N-(4-methyl-1-oxo-1-(1,4,7-trioxa-10-azacyclododecan-10-yl)pentan-2-yl)benzenesulfonamide] | −1.97 ± 14.7 | 41.9 ± 1.66 |  | 
CC(C)C[C@H](NS(=O)(=O)c1ccc(C(=O)OCc2ccccc2)cc1)C(=O)N1CCOCCOCCOCC1 [Compound 36, (S)-benzyl 4-(N-(4-methyl-1-oxo-1-(1,4,7-trioxa-10-azacyclododecan-10-yl)pentan-2-yl)sulfamoyl)benzoate] | 64.40 ± 2.96 | 36.8 ± 2.25 |  | 
Cc1ccc(S(=O)(=O)N[C@@H](CC(=O)OC(C)(C)C)C(=O)N2CCOCC2)cc1 [Compound 37, (S)-tert-butyl 3-(4-methylphenylsulfonamido)-4-morpholino-4-oxobutanoate] | 20.33 | 45 ± 7.8 |  | 
Cc1ccc(S(=O)(=O)N[C@@H](Cc2ccccc2)C(=O)N2CCOCC2)cc1 [Compound 38, (S)-4-methyl-N-(1-morpholino-1-oxo-3-phenylpropan-2-yl)benzenesulfonamide] | 15.14 ± 1.24 | 32.3 ± 2.6 |  | 
Cc1ccc(S(=O)(=O)N[C@@H](CO)C(=O)N2CCOCC2)cc1 [Compound 39, (S)—N-(3-hydroxy-1-morpholino-1-oxopropan-2-yl)-4-methylbenzenesulfonamide] | −2.43 ± 0.94 | 7.7 ± 11.2 |  | 
Cc1ccc(S(=O)(=O)N[C@H](C(=O)N2CCOCC2)C(C)C)cc1 [Compound 40, (S)-4-methyl-N-(3-methyl-1-morpholino-1-oxobutan-2-yl)benzenesulfonamide] | −5.41 ± 6.12 | 31.3 ± 10.3 |  | 
O=C(Nc1nc(-c2ccc([N+](=O)[O-])cc2)cs1)[C@H](Cc1c[nH]c2ccccc12)NS(=O)(=O)c1ccc(Br)cc1 [Compound 190, (S)-2-(4-Bromophenylsulfonamido)-3-(1H-indol-3-yl)-N-(4-(4-nitrophenyl)thiazol-2-yl)propanamide] |  |  |  | 29.6 ± 14
CCCCCCCCCC(=O)NNC(=O)[C@H](Cc1c[nH]c2ccccc12)NS(=O)(=O)c1ccc(Br)cc1 [Compound 195, (S)-4-Bromo-N-(1-(2-decanoylhydrazinyl)-3-(1H-indol-3-yl)-1-oxopropan-2-yl)benzenesulfonamide] |  | 45.4 ± 5.61 |  | 45.4 ± 5.61
